# Assay results reported in publication PMC7807415 (Toxicology letters, 2020).
# Where “and” joins values, the source holds several entries; their conditions need not be identical. Equal values may be shown once.
# B1: CYP2C8 (Homo sapiens) (protein)
# chain: MEPFVVLVLCLSFMLLFSLWRQSCRRRKLPPGPTPLPIIGNMLQIDVKDICKSFTNFSKVYGPVFTVYFGMNPIVVFHGYEAVKEALIDNGEEFSGRGNSPISQRITKGLGIISSNGKRWKEIRRFSLTTLRNFGMGKRSIEDRVQEEAHCLVEELRKTKASPCDPTFILGCAPCNVICSVVFQKRFDYKDQNFLTLMKRFNENFRILNSPWIQVCNNFPLLIDCFPGTHNKVLKNVALTRSYIREKVKEHQASLDVNNPRDFIDCFLIKMEQEKDNQKSEFNIENLVGTVADLFVAGTETTSTTLRYGLLLLLKHPEVTAKVQEEIDHVIGRHRSPCMQDRSHMPYTDAVVHEIQRYSDLVPTGVPHAVTTDTKFRNYLIPKGTTIMALLTSVLHDDKEFPNPNIFDPGHFLDKNGNFKKSDYFMPFSAGKRICAGEGLARMELFLFLTTILQNFNLKSVDDLKNLNTTAVTKGIVSLPPSYQICFIPV
# B2: CYP2C19 (Homo sapiens) (protein)
# chain: MDPFVVLVLCLSCLLLLSIWRQSSGRGKLPPGPTPLPVIGNILQIDIKDVSKSLTNLSKIYGPVFTLYFGLERMVVLHGYEVVKEALIDLGEEFSGRGHFPLAERANRGFGIVFSNGKRWKEIRRFSLMTLRNFGMGKRSIEDRVQEEARCLVEELRKTKASPCDPTFILGCAPCNVICSIIFQKRFDYKDQQFLNLMEKLNENIRIVSTPWIQICNNFPTIIDYFPGTHNKLLKNLAFMESDILEKVKEHQESMDINNPRDFIDCFLIKMEKEKQNQQSEFTIENLVITAADLLGAGTETTSTTLRYALLLLLKHPEVTAKVQEEIERVIGRNRSPCMQDRGHMPYTDAVVHEVQRYIDLIPTSLPHAVTCDVKFRNYLIPKGTTILTSLTSVLHDNKEFPNPEMFDPRHFLDEGGNFKKSNYFMPFSAGKRICVGEGLARMELFLFLTFILQNFNLKSLIDPKDLDTTPVVNGFASVPPFYQLCFIPV
# B3: CYP1A2 (Homo sapiens) (protein)
# chain: MALSQSVPFSATELLLASAIFCLVFWVLKGLRPRVPKGLKSPPEPWGWPLLGHVLTLGKNPHLALSRMSQRYGDVLQIRIGSTPVLVLSRLDTIRQALVRQGDDFKGRPDLYTSTLITDGQSLTFSTDSGPVWAARRRLAQNALNTFSIASDPASSSSCYLEEHVSKEAKALISRLQELMAGPGHFDPYNQVVVSVANVIGAMCFGQHFPESSDEMLSLVKNTHEFVETASSGNPLDFFPILRYLPNPALQRFKAFNQRFLWFLQKTVQEHYQDFDKNSVRDITGALFKHSKKGPRASGNLIPQEKIVNLVNDIFGAGFDTVTTAISWSLMYLVTKPEIQRKIQKELDTVIGRERRPRLSDRPQLPYLEAFILETFRHSSFLPFTIPHSTTRDTTLNGFYIPKKCCVFVNQWQVNHDPELWEDPSEFRPERFLTADGTAINKPLSEKMMLFGMGKRRCIGEVLAKWEIFLFLAILLQQLEFSVPPGVKVDLTPIYGLTMKHARCEHVQARLRFSIN
# Experiments:
# [1] = system: P450 activity in human liver microsomes (HLM150); experiment: Inhibitor phenotyping of bioactivation in human liver microsomes; assay type: in vitro ADME
# [2] = FAERS search for hepatobiliary disorder cases involving meloxicam; parameters: species or system human
# CYP1A2 = target: T1, CYP1A2 (Homo sapiens, UniProt P05177); conditions: pH 7.4
# T1 sequence (P05177 1-516): B3 chain
# [3] = BJC HealthCare electronic health record cohort: DILI hospitalizations; parameters: species or system human; conditions: of 2800 DILI hospitalizations; 4570 hospitalizations prescribed meloxicam
# [4] = patients; ref Gschwend et al., 2007; cited from earlier work
# CYP3A4 = CYP3A4 (Homo sapiens, UniProt P08684); conditions: 400 µM sudoxicam, 100 nM CYP3A4, 30 min
# Sequence of CYP3A4 (P08684 whole entry): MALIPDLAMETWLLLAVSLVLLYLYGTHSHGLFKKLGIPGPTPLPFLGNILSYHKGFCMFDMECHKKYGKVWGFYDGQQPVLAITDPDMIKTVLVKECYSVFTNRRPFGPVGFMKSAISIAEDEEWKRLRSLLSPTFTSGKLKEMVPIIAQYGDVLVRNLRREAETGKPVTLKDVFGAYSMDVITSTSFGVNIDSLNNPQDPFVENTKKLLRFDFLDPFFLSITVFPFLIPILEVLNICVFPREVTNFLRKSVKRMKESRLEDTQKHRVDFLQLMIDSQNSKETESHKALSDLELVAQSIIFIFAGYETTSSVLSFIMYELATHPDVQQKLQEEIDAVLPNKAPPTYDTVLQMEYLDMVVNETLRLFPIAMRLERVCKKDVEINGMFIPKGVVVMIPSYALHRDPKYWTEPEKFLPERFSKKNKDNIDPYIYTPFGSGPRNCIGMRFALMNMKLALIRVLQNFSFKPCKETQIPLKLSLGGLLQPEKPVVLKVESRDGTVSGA
# CYP2C19 = CYP2C19 (Homo sapiens, UniProt P33261); conditions: 400 µM sudoxicam, 100 nM CYP2C19, 30 min
# [5] = substrate: CN1C(C(=O)Nc2nccs2)=C(O)c2ccccc2S1(=O)=O; experiment: cells, lysate or membranes named; conditions: other: sudoxicam -> glyoxal (bioactivation), pH 7.4
# [6] = substrate: Cc1cnc(NC(=O)C2=C(O)c3ccccc3S(=O)(=O)N2C)s1; experiment: cells, lysate or membranes named; conditions: other: meloxicam -> methylglyoxal (bioactivation), recombinant CYP 1A2; pH 7.4
molecule,measurement,setting,value
"Nn1nnc2ccccc21 [ABT, 1-aminobenzotriazole]",blocked methylglyoxal formation (meloxicam bioactivation),"[1]; 1 mM ABT, 10 µM meloxicam, HLM150 0.5 mg/mL, 40 min",85%
"O=c1cc(-c2ccccc2)oc2c1ccc1ccccc12 [ANF, α-naphthoflavone]",effect on glyoxal formation (sudoxicam bioactivation),"[1]; 16 µM ANF (CYP1A2 inhibitor), 10 µM sudoxicam, HLM150",increased significantly the extent of the reaction
Cc1c(OCC(F)(F)F)ccnc1C[S+]([O-])c1nc2ccccc2[nH]1 (stereo not drawn) [lansoprazole],share of total applicable hepatobiliary cases with concomitant drug,[2]; human,6%
Cc1cnc(NC(=O)C2=C(O)c3ccccc3S(=O)(=O)N2C)s1 [meloxicam],Scaled contribution of CYP1A2 (Vmax/Km),CYP1A2,0.457 pmol/min/mg protein/µM substrate
same,Vmax,CYP1A2,1000 ± 53 pmol/min/nmol protein
same,methylglyoxal formation in recombinant P450 screen,"CYP1A2; recombinant enzyme, 30 min, 400 µM",only recombinant P450 to form detectable levels of methylglyoxal
same,Percent contribution of CYP1A2,CYP1A2; recombinant enzyme,100%
same,hepatobiliary disorder cases resulting in death,"[2]; FAERS, 1998 to 2020",39 cases
same,serious cases of hepatobiliary disorders,[2]; human,308 cases
same,total cases of hepatobiliary disorders,[2]; human,326 cases
same,DILI hospitalizations that had been prescribed meloxicam,[3],8 hospitalizations
same,maximum plasma levels,[4],3.2 µM
COc1ccc2[nH]c([S+]([O-])Cc3ncc(C)c(OC)c3C)nc2c1 (stereo not drawn) [omeprazole],share of total applicable hepatobiliary cases with concomitant drug,[2]; human,6%
"CN1C(C(=O)Nc2nccs2)=C(O)c2ccccc2S1(=O)=O [sudoxicam, N-(2-thiazolyl)-4-hydroxy-2-methyl-2H-1,2-benzothiazine-3-carboxamide 1,1-dioxide]",glyoxal formation in recombinant P450 screen,CYP3A4,capable of catalyzing the reaction
same,glyoxal formation in recombinant P450 screen,CYP2C19,capable of catalyzing the reaction
B1,Km,[5]; recombinant CYP 2C8,5 µM and 4.6 ± 0.89 µM
B2,Km,[5]; recombinant CYP 2C19,23 ± 5.2 µM
B3,Km,[6],40 ± 7.5 µM
